The target of data set [1] is T1, Deoxyuridine 5'-triphosphate nucleotidohydrolase, mitochondrial (Homo sapiens, UniProt P33316).
T1 sequence (P33316 whole entry): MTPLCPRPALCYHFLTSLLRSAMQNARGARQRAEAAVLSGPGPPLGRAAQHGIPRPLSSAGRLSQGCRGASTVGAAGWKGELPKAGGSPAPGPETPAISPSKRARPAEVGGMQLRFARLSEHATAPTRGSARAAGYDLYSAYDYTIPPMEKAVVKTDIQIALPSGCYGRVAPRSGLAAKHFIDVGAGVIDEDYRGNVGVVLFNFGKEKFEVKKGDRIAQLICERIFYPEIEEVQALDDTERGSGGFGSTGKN
As to the kind of experiment: Inhibition of human dUTPase-mediated formation of [5-3H]dUMP expressed in Escherichia coli BL21 (DE3) after 15 mins by HPLC analysis.

Data set [2] deals with MX1. The experiment in a line: Antitumor activity against human MX1 cells xenografted in Balb/cA JcL mouse at 15 mg/kg/day dosed as as continuous infusion measured on day 15. The class given is functional. As to conditions: MX1, 360 h. A general note: Xenograft models place foreign cells or tissue in a host animal.
Data set [3] relates to Mus musculus. The experiment in a line: Toxicity in Balb/cA JcL mouse xenografted with human MX1 cells assessed as mortality at 300 mg/kg/day, po co-administered with 5-FU at 15 mg/kg/day as continuous infusion measured on day 15. The data set is classed as organism-based. As to conditions: in vivo.
Data set [4] deals with Mus musculus. As to the kind of experiment: Toxicity in Balb/cA JcL mouse xenografted with human MX1 cells assessed as reduction of body weight at 300 mg/kg/day, po co-administered with 5-FU at 15 mg/kg/day as continuous infusion measured on day 15. The class given is organism-based. As to conditions: in vivo.
Data set [5] concerns MX1. As to the kind of experiment: Antitumor activity against human MX1 cells xenografted in Balb/cA JcL mouse at 300 mg/kg/day, po measured on day 15. The class given is functional. As to conditions: MX1, 360 h.
The nature of data set [6]: Cmax in Balb/cA mouse at 50 mg/kg, po. The class given is ADME, organism-based. More on the design: dose 50 mg/kg, route oral. As to conditions: in vivo.
Data set [7] is described as follows: Half life in Balb/cA mouse at 50 mg/kg, po. The class given is ADME, organism-based. More on the design: dose 50 mg/kg, route oral. Particulars: in vivo.
In data set [8] the test system is MX1. As to the kind of experiment: Potentiation of 5-FU induced antitumor activity in human MX1 cells xenografted in Balb/cA JcL mouse at 300 mg/kg/day, po measured on day 15. As to conditions: MX1, 360 h. The class given is functional.
Data set [9] in a line: AUC (0 to t) in Balb/cA mouse at 50 mg/kg, po. The class given is ADME, organism-based. The arrangement: dose 50 mg/kg, route oral. Particulars: plasma.
The nature of data set [10]: Tmax in Balb/cA mouse at 50 mg/kg, po. The class given is ADME, organism-based. The arrangement: dose 50 mg/kg, route oral. As to conditions: in vivo.

Experimental findings from ChEMBL document CHEMBL2146384 (J Med Chem, 2012) are described below.

The IC50 is the concentration at which inhibition is half-maximal. Higher therefore signals weaker potency in that assay. Broadly, the inhibition in vivo is the relative decrease from the control value, in per cent. One may read the Cmax as the maximum level reached in the sampled fluid or tissue. As usually defined, the half-life is how long it takes for the measured level to halve. Lower therefore signals rapid decline. As a reminder, the AUC(0-t) is the area under the concentration-time curve up to a stated or last time point. In general, Tmax refers to the time from dosing to the highest level.

In data set [1], `COc1cccc(S(=O)(=O)NC(C)(C)CC/C=C/Cn2ccc(=O)[nH]c2=O)c1` displayed an IC50 of 340 nM.
As to `C[C@@H](NS(=O)(=O)c1ccc(Cn2ccc(=O)[nH]c2=O)cc1)c1cccc(OCC2CC2)c1`, inhibition in data set [1] was half-maximal at 820 nM (IC50).
The compound `CC(C)(CC/C=C/Cn1ccc(=O)[nH]c1=O)NS(=O)(=O)c1cccc(OC2CCCC2)c1` came in with an IC50 in data set [1] of 33 nM.
For the compound `O=c1[nH]cc(F)c(=O)[nH]1` [FLUOROURACIL], the inhibition in vivo at 15 mg/kg/day in the data set with MX1 [2] stood at 20%.
The compound `CC(C)(NS(=O)(=O)c1cccc(OCC2CC2)c1)c1ccc(Cn2ccc(=O)[nH]c2=O)cc1` displayed an IC50 in [1] of 73 nM.
On the same count and under the same terms, the result for `CC(C)(NS(=O)(=O)c1cccc(OCC(F)F)c1)c1ccc(Cn2ccc(=O)[nH]c2=O)cc1` reads 73 nM; that for `CC(C)(CC/C=C/Cn1ccc(=O)[nH]c1=O)NS(=O)(=O)c1ccccc1`, 1600 nM.
Same read-out and setting: then `C[C@@H](NS(=O)(=O)c1ccc(Cn2ccc(=O)[nH]c2=O)cc1)c1cccc(OCC(F)F)c1`, with 410 nM.
In data set [1], `CC(C)(CC/C=C/Cn1ccc(=O)[nH]c1=O)NS(=O)(=O)c1cccc(OCC(F)F)c1` showed an IC50 of 26 nM.
Consider `COc1cccc(S(=O)(=O)NC(C)(C)c2ccc(Cn3ccc(=O)[nH]c3=O)cc2)c1`, for which half-maximal inhibition in data set [1] (IC50) required 1270 nM.
`C[C@@H](NS(=O)(=O)c1ccc(Cn2ccc(=O)[nH]c2=O)cc1)c1cccc(OC2CCCC2)c1`: the midpoint of inhibition in data set [1], the IC50, lay at 430 nM.
For `C[C@@H](NS(=O)(=O)CC/C=C/Cn1ccc(=O)[nH]c1=O)c1cccc(OCC(F)F)c1`, the midpoint of inhibition in [1], the IC50, lay at 82 nM.
In turn, `C[C@@H](NS(=O)(=O)CC/C=C/Cn1ccc(=O)[nH]c1=O)c1cccc(OC2CCCC2)c1` showed a half-inhibitory concentration (IC50) in data set [1] of 41 nM. Against the preceding compound, the IC50 is about 2-fold lower.
For `C[C@@H](NS(=O)(=O)CC/C=C/Cn1ccc(=O)[nH]c1=O)c1cccc(OCC2CC2)c1`, the Activity entry in the data set with Mus musculus [3] and with Mus musculus [4] was “Non-toxic” in each case. Besides, the inhibition in vivo at 300 mg/kg/day was -29% in the data set on MX1 [5] and 68% in the data set on MX1 [8]. In data set [6], this compound showed a Cmax of 19.5 µM. This compound also had a half-life in [7] of 53.4 min. The compound also came in with an AUC(0-t) in data set [9] of 19.5 µM·h. Further, the Tmax in [10] was found to be 30 min. In addition, in data set [1], the IC50 was determined as 39 nM.
Compound `CC(C)(NS(=O)(=O)c1ccccc1)c1ccc(Cn2ccc(=O)[nH]c2=O)cc1` came in with an IC50 in data set [1] of 1800 nM.
For `CC(C)(NS(=O)(=O)c1cccc(OC2CCCC2)c1)c1ccc(Cn2ccc(=O)[nH]c2=O)cc1`, 31 nM corresponded to half-maximal inhibition in data set [1] (IC50).
